Where two headings read alike, the source gives them in different places. Residues, ends and D or L forms follow the SMILES beside them. *: point of attachment. Arachidoyl = CCCCCCCCCCCCCCCCCCCC(=O)*; Stearoyl = CCCCCCCCCCCCCCCCCC(=O)*; Palmitoyl = CCCCCCCCCCCCCCCC(=O)*
How the values were obtained:
[1] = test system: influenza A/Puerto Rico/8/34 (H1N1); conditions: /Puerto Rico/8/34, 24 h
in vitro = conditions: dog
[2] = test system: clinical isolate 690 (H3 subtype); test: microbe, parasite or virus in culture; type: cell-based; conditions: Influenza A virus, read-out: IC50 ± SD, H3 (690)
[3] = test system: influenza A/Aichi/2/68 (H3N2); test: microbe, parasite or virus in culture; type: cell-based; conditions: H3N2, read-out: IC50 ± SD, H3N2
[4] = test system: influenza A/Puerto Rico/8/34 (H1N1); test: microbe, parasite or virus in culture; conditions: H1N1, MDCK, read-out: IC50 ± SD
influenza B virus = test: microbe, parasite or virus in culture; type: cell-based; conditions: read-out: IC50 ± SD, B
[5] = test system: clinical isolate 699 (H3 subtype); test: microbe, parasite or virus in culture; type: cell-based; conditions: Influenza A virus, read-out: IC50 ± SD, H3 (699)

Which IC50 [1] does the source give for CCCCCCCCCCCCCCCC(=O)N[C@@H](CCCCN)C(=O)N[C@@H](CCCCN)C(=O)N[C@@H](Cc1c[nH]c2ccccc12)C(=O)N[C@@H](CCCCN)C(=O)NCC(=O)NCC(=O)NCC(=O)N[C@@H](C)C(=O)N[C@@H](CCCNC(=N)N)C(=O)N[C@@H](CC(C)C)C(=O)N1CCC[C@H]1C(=O)N[C@@H](CCCNC(=N)N)C(N)=O [C16-Hp-GGG-Jp, C16-KKWKGGGARLPR] (Palmitoyl-KKWKGGGARLPR-NH2) here?
The IC50 was 8.05 ± 0.52 µM.

And the CC50 at 48 h (in vitro)?
The CC50 at 48 h was greater than 200 µM.

For CCCCCCCCCCCCCCCC(=O)N[C@@H](CCCCN)C(=O)N[C@@H](CCCCN)C(=O)N[C@@H](Cc1c[nH]c2ccccc12)C(=O)N[C@@H](CCCCN)C(=O)N[C@@H](C)C(=O)N[C@@H](CCCNC(=N)N)C(=O)N[C@@H](CC(C)C)C(=O)N1CCC[C@H]1C(=O)N[C@@H](CCCNC(=N)N)C(N)=O [C16-Hp-Jp, C16-KKWKARLPR] (Palmitoyl-KKWKARLPR-NH2), which IC50 [1] is on record?
The IC50 was 2.48 ± 0.24 µM.

And the CC50 at 48 h (in vitro)?
Its CC50 at 48 h is greater than 200 µM.

For CCCCCCCCCCCCCCCC(=O)N[C@@H](C)C(=O)N[C@@H](CCCNC(=N)N)C(=O)N[C@@H](CC(C)C)C(=O)N1CCC[C@H]1C(=O)N[C@@H](CCCNC(=N)N)C(=O)NCC(=O)NCC(=O)NCC(=O)N[C@@H](CCCCN)C(=O)N[C@@H](CCCCN)C(=O)N[C@@H](Cc1c[nH]c2ccccc12)C(=O)N[C@@H](CCCCN)C(N)=O [C16-Jp-GGG-Hp, C16-ARLPRGGGKKWK] (Palmitoyl-ARLPRGGGKKWK-NH2), which IC50 [1] is on record?
Its IC50 is 6.79 ± 0.17 µM.

What about the CC50 at 48 h (in vitro) of the same compound?
The CC50 at 48 h was greater than 200 µM.

For CCCCCCCCCCCCCCCC(=O)N[C@@H](C)C(=O)N[C@@H](CCCNC(=N)N)C(=O)N[C@@H](CC(C)C)C(=O)N1CCC[C@H]1C(=O)N[C@@H](CCCNC(=N)N)C(=O)N[C@@H](CCCCN)C(=O)N[C@@H](CCCCN)C(=O)N[C@@H](Cc1c[nH]c2ccccc12)C(=O)N[C@@H](CCCCN)C(N)=O [C16-Jp-Hp, C16-ARLPRKKWK] (Palmitoyl-ARLPRKKWK-NH2), which IC50 [1] is on record?
Its IC50 is 1.29 ± 0.4 µM.

What about the CC50 at 48 h (in vitro) of the same compound?
The CC50 at 48 h was greater than 200 µM.

For CCCCCCCCCCCCCCCCCC(=O)N[C@@H](CCCCN)C(=O)N[C@@H](CCCCN)C(=O)N[C@@H](Cc1c[nH]c2ccccc12)C(=O)N[C@@H](CCCCN)C(=O)NCC(=O)NCC(=O)NCC(=O)N[C@@H](C)C(=O)N[C@@H](CCCNC(=N)N)C(=O)N[C@@H](CC(C)C)C(=O)N1CCC[C@H]1C(=O)N[C@@H](CCCNC(=N)N)C(N)=O [C18-Hp-GGG-Jp, C18-KKWKGGGARLPR] (Stearoyl-KKWKGGGARLPR-NH2), which IC50 [1] is on record?
Its IC50 is 6.99 ± 2 µM.

And the CC50 at 48 h (in vitro)?
The CC50 at 48 h was greater than 200 µM.

With CCCCCCCCCCCCCCCCCC(=O)N[C@@H](C)C(=O)N[C@@H](CCCNC(=N)N)C(=O)N[C@@H](CC(C)C)C(=O)N1CCC[C@H]1C(=O)N[C@@H](CCCNC(=N)N)C(=O)NCC(=O)NCC(=O)NCC(=O)N[C@@H](CCCCN)C(=O)N[C@@H](CCCCN)C(=O)N[C@@H](Cc1c[nH]c2ccccc12)C(=O)N[C@@H](CCCCN)C(N)=O [C18-Jp-GGG-Hp, C18-ARLPRGGGKKWK] (Stearoyl-ARLPRGGGKKWK-NH2) as the compound, how does the IC50 [1] read?
The IC50 was 5.09 ± 0.35 µM.

What about the CC50 at 48 h (in vitro) of the same compound?
The CC50 at 48 h was greater than 200 µM.

What does the source list for CCCCCCCCCCCCCCCCCCCC(=O)N[C@@H](CCCCN)C(=O)N[C@@H](CCCCN)C(=O)N[C@@H](Cc1c[nH]c2ccccc12)C(=O)N[C@@H](CCCCN)C(=O)NCC(=O)NCC(=O)NCC(=O)N[C@@H](C)C(=O)N[C@@H](CCCNC(=N)N)C(=O)N[C@@H](CC(C)C)C(=O)N1CCC[C@H]1C(=O)N[C@@H](CCCNC(=N)N)C(N)=O [C20-Hp-GGG-Jp, C20-KKWKGGGARLPR] (Arachidoyl-KKWKGGGARLPR-NH2)?
IC50 [1]: 5.22 ± 0.37 µM; CC50: > 200 µM

Which results are given for CCCCCCCCCCCCCCCCCCCC(=O)N[C@@H](C)C(=O)N[C@@H](CCCNC(=N)N)C(=O)N[C@@H](CC(C)C)C(=O)N1CCC[C@H]1C(=O)N[C@@H](CCCNC(=N)N)C(=O)NCC(=O)NCC(=O)NCC(=O)N[C@@H](CCCCN)C(=O)N[C@@H](CCCCN)C(=O)N[C@@H](Cc1c[nH]c2ccccc12)C(=O)N[C@@H](CCCCN)C(N)=O [C20-Jp-GGG-Hp, C20-ARLPRGGGKKWK] (Arachidoyl-ARLPRGGGKKWK-NH2)?
IC50 [1]: 4.04 ± 0.02 µM; CC50: > 200 µM

With NC(=O)c1ncn([C@@H]2O[C@H](CO)[C@@H](O)[C@H]2O)n1 [Ribavirin, ribavirin] as the compound, how does the IC50 [2] read?
The IC50 was 8.47 ± 3.01 µM.

What about the IC50 [3] of the same compound?
The IC50 was 24.9 ± 1.1 µM.

What about the IC50 [4] of the same compound?
Its IC50 is 12.85 ± 0.08 µM.

And the IC50 (influenza B virus)?
The IC50 was 6.71 ± 0.93 µM.

What about the IC50 [5] of the same compound?
Its IC50 is 4.92 ± 1.45 µM.

Source: paper PMC4782136 (Scientific Reports, 2016)
